Literature values, collected in patent US20220023306A1, “USE OF A PPAR-DELTA AGONIST IN THE TREATMENT OF FATTY ACID OXIDATION DISORDERS (FAOD)” (Reneo Pharmaceuticals, Inc., priority 2019, published 2022).
Like-named read-outs stand apart in the source and are kept apart here.

What was measured:
VLCAD = VLCAD deficient cell line FB833; cited from earlier work
CPT2-deficient myoblasts = conditions: cited from earlier work; for FAO: CPT2-deficient myoblasts
control myoblasts = conditions: cited from earlier work
[1] = test system: fibroblasts derived from patients with VLCAD, LCHAD and TFP deficiencies; conditions: cited from earlier work
CPT2 = conditions: cultured patient fibroblasts carrying mild mutations of the CPT2 gene; cited from earlier work

## Cc1cc(SCc2sc(-c3ccc(C(F)(F)F)c(F)c3)nc2C)ccc1OCC(=O)O [GW0742, [4-[[[2-[3-Fluoro-4-(trifluoromethyl)phenyl]-4-methyl-5-thiazolyl]methyl]thio]-2-methylphenoxy]acetic acid]
VLCAD
  VLCAD enzyme activity: increase

## Cc1cc(SCc2sc(-c3ccc(C(F)(F)F)cc3)nc2C)ccc1OCC(=O)O [GW501516, 2-[2-Methyl-4-[[[4-methyl-2-[4-(trifluoromethyl)phenyl]-5-thiazolyl]methyl]thio]phenoxy]acetic acid]
VLCAD
  VLCAD enzyme activity: increase

## Cc1cc(SCc2sc(-c3ccc(C(F)(F)F)c(F)c3)nc2C)ccc1OCC(=O)O [GW 072]
CPT2-deficient myoblasts; CPT2-deficient cells
  long-chain acylcarnitine production: normalized
  residual CPT2 activity: increased
CPT2-deficient myoblasts
  FAO: restore
Control myoblasts
  FAO: stimulated

## CC(C)(Sc1ccc(CCN(CCCCC2CCCCC2)C(=O)NC2CCCCC2)cc1)C(=O)O [GW 7647]
CPT2-deficient myoblasts
  FAO: no effect

## CCCc1c(OCCCOc2ccc(OCC(=O)O)cc2)ccc(C(C)=O)c1O [L-165,0411, [4-[3-(4-Acetyl-3-hydroxy-2-propylphenoxy)propoxy]phenoxy]acetic acid]
VLCAD
  VLCAD enzyme activity: increase

## Cc1cnc(-c2ccc(C(F)(F)F)cc2)n1Cc1ccccc1OCCC[C@@H](C)CC(=O)O [MA-0211]
[1]; fibroblasts from patients with LCHAD deficiency
  fatty acid oxidation: improvements
[1]; fibroblasts from patients with TFP deficiency
  fatty acid oxidation: improvements
[1]; fibroblasts from patients with VLCAD deficiency
  fatty acid oxidation: improvements

## CC(C)(Oc1ccc(CCNC(=O)c2ccc(Cl)cc2)cc1)C(=O)O [bezafibrate, 2-(4-{2-[(4-Chlorobenzoyl)amino]ethyl}phenoxy)-2-methylpropanoic acid]
CPT2-deficient myoblasts
  FAO: restore
CPT2
  enhancement of deficient enzyme (CPT2): enhancement
